Experimental data published in article PMC10298626 (International Journal of Molecular Sciences, 2023).
Marks after values point to notes of the source that are not given here.

Legend:
[1] = tested on: LPS-stimulated RAW264.7 cells; assay: NO production (Griess reagent) in LPS-stimulated RAW264.7 cells; format: cell-based, Mouse; details: Dexamethasone (100 μM) treated for 2 h and LPS treated for 20 h; LPS alone 25.9, control 3.1
[2] = molecular target: acetylcholinesterase; set-up: method as in PMID 8823504, PMID 7649881, PMID 9535168; details: read-out: IC50 against acetylcholinesterase; cited from earlier work
[3] = tested on: LPS-stimulated RAW264.7 cells; assay: NO production (Griess reagent) in LPS-stimulated RAW264.7 cells; format: cell-based, Mouse; details: then LPS (500 ng/mL) 20 h, LPS alone 25.9, control 3.1
Description: A high concentration of NO promotes the synthesis of inflammatory mediators, leading to an inflammatory response, and has been reported to be a cause of various immune diseases. Therefore, this study was conducted to investigate the effect of coumarin derivatives on the production of NO induced by LPS stimulation in RAW264.7 cells. The cells were treated with coumarin derivatives at concentrations of 20, 40, and 80 μM for 2 h. Then, the cells were treated with LPS. After 20 h, the culture supernatant was recovered, and the amount of NO was measured. […] The anti-inflammatory activity of these derivatives depended on the position of the substituted group rather than the electron density of the substituted group.
The Griess reagent was used to measure NO production. RAW264.7 cells were seeded into a 96-well plate and cultured for 24 h. The cells were treated with 20, 40, and 80 μM of coumarin derivatives, cultured for 2 h, and then cultured with LPS (500 ng/mL) for 20 h. The same amount of cell supernatant and Griess reagent were used for the reaction, and absorbance was measured at 540 nm.

[4] = in vitro; format: cell-based; details: mouse, RAW264.7 cells, then LPS (500 ng/mL) 20 h, read-out: Cell viability, Average (%)
Description: To investigate the anti-inflammatory activity of coumarin derivatives, cell viability was analyzed by treating RAW264.7 cells with 23 types of coumarin derivatives at concentrations of 20, 40, and 80 μM for 2 h and with LPS for 20 h.
Mouse macrophage RAW264.7 cells were purchased from the Korea Cell Line Bank (Seoul, Republic of Korea) and cultured in Dulbecco’s Modified Eagle Medium (Corning, NY, USA) containing 10% fetal bovine serum and 1% penicillin/streptomycin at 37 °C and 5% CO2. The medium was changed every 2 days and subcultured when the cells grew > 80%.
EZ-Cytox cell viability assay kit (Dogen, Suwon, Republic of Korea) was used to measure cell viability according to the manufacturer’s instructions. RAW264.7 cells were seeded into a 96-well plate (1 × 10^5 cells/well) and treated with coumarin derivatives at concentrations of 20, 40, and 80 μM. After 2 h, the cells were treated with LPS (500 ng/mL) and cultured for 24 h in a 37 °C, 5% CO2 incubator. The culture supernatant was treated with 10% EZ-Cytox reagent, and a microplate reader was used to measure the absorbance at 450 nm.

C[C@@H]1C[C@H]2[C@@H]3CCC4=CC(=O)C=C[C@]4(C)[C@@]3(F)[C@@H](O)C[C@]2(C)[C@@]1(O)C(=O)CO [Dexamethasone]
NO production, Average (μM) [1]: 6.5 ^# μM

COc1ccc(-c2cc3c(c(=O)o2)C[C@]2(O)[C@@]4(C)C(=O)C=CC(C)(C)[C@]4(O)CC[C@@]2(C)O3)cc1 [Arisugacin B]
IC50 [2]: 0.026 µM

COc1ccc(-c2cc3c(c(=O)o2)C[C@]2(O)[C@@]4(C)C(=O)C=CC(C)(C)[C@]4(O)CC[C@@]2(C)O3)cc1OC [Arisugacin A]
IC50 [2]: 0.001 µM

COc1cccc(C2C(C#N)=C(N)Oc3c2c(=O)oc2ccccc32)c1 (stereo not drawn) [Coumarin derivative 16]
NO production, Average ([3]; 20 μM for 2 h): 27.58 µM | NO production, Average ([3]; 40 μM for 2 h): 26.33 µM | NO production, Average (μM) ([3]; 80 μM for 2 h): 16.17 *** μM | viability at 22 h, 20 μM ([4]; 20 μM for 2 h): 107% | viability at 22 h, 40 μM ([4]; 40 μM for 2 h): 102% | viability at 22 h, 80 μM ([4]; 80 μM for 2 h): 96.3%
